According to US8420574B2, “Plant growth enhancement with combinations of PESA and herbicides” (Valent BioSciences Corporation, priority 2009, dated 2013):

Tests used:
Type in all cases: in vivo
rice cv. Cheniere [1] = assay: Pouch assay, PESA salt and herbicide added to the pouch solution; root and shoot length
Experimental: Alternatively, PESA salt and herbicides may be added separately to the sterile water in the growth pouch.
(§1) Seeds were placed in germination pouches consisting of germination paper hydrated with sterile water that was an insert in a gas-permeable 16×14 cm plastic pouch (CYG Pouch; Mega International, St. Paul, Minn.). In these examples, in pouch solution evaluation, PESA sodium salt or other active ingredients were added to the sterile water in the pouch. The pouches were arranged in a completely randomized block design in growth racks and placed in 19-liter polycarbonate food storage containers (Rubbermaid Commercial Products, Winchester, Va.). The sealed containers were held in an upright growth cabinet maintained at 25 C with a 12 hour light: 12 hour dark photoperiod. After 6 days, the containers were removed from the growth cabinet, and the lengths of the roots and shoot were measured.

rice cv. Nipponbare = assay: Hydroponic assay; total root length and shoot length; conditions: for Shoot Length / Total Root Length: 0 ppm PESA salt
Experimental: Where hydroponically-grown rice was used in studies, the seeds were pre-incubated in water at 30 C for 2 days to stimulate germination. Three seeds were placed on a float and cultivated hydroponically in a test tube (25 mm×200 mm), which contained 50 ml of Kimura B nutrient solution at ⅛th strength supplemented with herbicides and PESA sodium salt. The exposure of the roots to the light was prevented by wrapping the tubes with aluminum foil. The rice seedlings were incubated in a growth cabinet at 25 C under continuous light for 14 days, and the total root length and shoot length were measured. Total root length (cm) was the root length/plant determined following scanning with WinRhizo software (Regent Instruments INC, Toronto, Canada).

rice cv. Cheniere [2] = assay: Emergence of seed-treated rice seeded onto soil previously treated with herbicide; conditions: no seed treatment (Control), untreated 90
Description: Seed was sieved with a screen of mesh size appropriate to remove broken seeds and small trash. Cracked or otherwise damaged seeds were removed. The seed was well mixed, and 50 g samples were weighed into small plastic trays. […] A fungicide (Maxim XL; Syngenta Agricultural Products, Greensboro, N.C.), a polymeric binder (CF-Clear; Becker-Underwood, Ames, Iowa), and a colorant (Color Coat Red; Becker-Underwood, Ames, Iowa) were also included in the slurry at label rates. A small aliquot of this slurry was applied to the seed using the Hege 11 coater (Wintersteiger, Salt Lake City, Utah) with a six-inch bowl at a slurry rate of 30 ounces per 100 lbs of seed. The slurry was deposited drop-wise on the spinning disk atomizer using a syringe.
Rice cv. […] It was then seeded onto soil which was previously sprayed with the pendimethalin herbicide Prowl H2O® (BASF Agricultural Products, Research Triangle Park, N.C.).
After seed treatment, rice was seeded into soil previously treated with the dithiopyr herbicide Dimension®.
Rice seed treated with PESA was tested for its ability to protect rice from the herbicide Roundup WeatherMax® (glyphosate). After seed treatment, rice was seeded into soil previously treated with the Roundup WeatherMax®.

cotton = assay: Pouch assay; root and shoot length of cotton; conditions: 0 ppm PESA salt; for Shoot Length: untreated 4.7; for Root Length: untreated 7.7
Experimental: as §1

[3] = 50 ppm pendimethalin, treatment none (Control), 30 ppm PESA salt, 10 ppm GA3 or both, untreated 3.9
[4] = 50 ppm pendimethalin, treatment none (Control), 30 ppm PESA salt, 10 ppm GA3 or both, untreated 9.7
[5] = pendimethalin (Table 4, 50 ppm)
[6] = 10 ppm dithiopyr, treatment none (Control), 30 ppm PESA salt, 10 ppm GA3 or both, untreated 3.9
[7] = 10 ppm dithiopyr, treatment none (Control), 30 ppm PESA salt, 10 ppm GA3 or both, untreated 9.5

CCC(CC)Nc1c([N+](=O)[O-])cc(C)c(C)c1[N+](=O)[O-] [Pendimethalin, pendimethalin, reference compound]
Shoot Length (rice cv. Cheniere [1]; 10 ppm pendimethalin, 0 ppm PESA salt, untreated 3.4): 3.4 cm
Root Length (rice cv. Cheniere [1]; 10 ppm pendimethalin, 0 ppm PESA salt, untreated 8.5): 8.3 cm
Shoot Length (rice cv. Cheniere [1]; [3]): 1.3 cm
Root Length (rice cv. Cheniere [1]; [4]): 2.9 cm
root length reduced by (rice cv. Cheniere [1]; 100 ppm pendimethalin): 70%
Shoot Length (rice cv. Cheniere [1]; 100 ppm pendimethalin, 0 ppm PESA salt, untreated 3.4): 1.0 cm
Root Length (rice cv. Cheniere [1]; 100 ppm pendimethalin, 0 ppm PESA salt, untreated 8.5): 2.5 cm
Shoot Length (rice cv. Cheniere [1]; 500 ppm pendimethalin, 0 ppm PESA salt, untreated 3.4): 0.5 cm
Root Length (rice cv. Cheniere [1]; 500 ppm pendimethalin, 0 ppm PESA salt, untreated 8.5): 0.5 cm
root length decreased by (rice cv. Cheniere [1]; [5]): 75%
shoot length decreased by (rice cv. Cheniere [1]; [5]): 67%

C#CCOC(=O)[C@@H](C)Oc1ccc(Oc2ncc(Cl)cc2F)cc1 [Clodinafop-propargyl, clodinafop-propargyl, reference compound]
Shoot Length (rice cv. Nipponbare; 0.3 ppm clodinafop-propargyl, untreated 10.6): 10.2 cm
Total Root Length (rice cv. Nipponbare; 0.3 ppm clodinafop-propargyl, untreated 52.1): 45.3 cm
Shoot Length (rice cv. Nipponbare; 1 ppm clodinafop-propargyl, untreated 10.6): 10.9 cm
Total Root Length (rice cv. Nipponbare; 1 ppm clodinafop-propargyl, untreated 52.1): 11.5 cm
root length reduced by (rice cv. Nipponbare; 3 ppm clodinafop-propargyl): 91%
Shoot Length (rice cv. Nipponbare; 3 ppm clodinafop-propargyl, untreated 10.6): 7.5 cm
Total Root Length (rice cv. Nipponbare; 3 ppm clodinafop-propargyl, untreated 52.1): 4.7 cm

COc1cc(OC)nc(NC(=O)NS(=O)(=O)c2c(Cl)nc3ccccn23)n1 [Imazosulfuron, imazosulfuron, reference compound]
Shoot Length (rice cv. Nipponbare; 0.01 ppm imazosulfuron, untreated 11.4): 12.6 cm
Total Root Length (rice cv. Nipponbare; 0.01 ppm imazosulfuron, untreated 44.9): 41.4 cm
root length reduced by (rice cv. Nipponbare; 0.1 ppm imazosulfuron): 49%
Shoot Length (rice cv. Nipponbare; 0.1 ppm imazosulfuron, untreated 11.4): 8.6 cm
Total Root Length (rice cv. Nipponbare; 0.1 ppm imazosulfuron, untreated 44.9): 23.1 cm
shoot length reduced by (rice cv. Nipponbare; 1 ppm imazosulfuron): 86%
Shoot Length (rice cv. Nipponbare; 1 ppm imazosulfuron, untreated 11.4): 1.6 cm
Total Root Length (rice cv. Nipponbare; 1 ppm imazosulfuron, untreated 44.9): 4.9 cm

O=C(O)CNCP(=O)(O)O [Glyphosate, glyphosate, reference compound]
Percent Emergence at 9 days after planting (rice cv. Cheniere [2]; glyphosate 23 μg/cm2 (Roundup)): 72%
Percent Emergence at 9 days after planting (rice cv. Cheniere [2]; glyphosate 90 μg/cm2 (Roundup)): 12%

COc1c(Cl)ccc(Cl)c1C(=O)O [Dicamba, dicamba, reference compound]
Shoot Length (rice cv. Nipponbare; 0.01 ppm dicamba, untreated 11.4): 10.6 cm
Total Root Length (rice cv. Nipponbare; 0.01 ppm dicamba, untreated 44.9): 21.3 cm
root length reduced by (rice cv. Nipponbare; 0.1 ppm dicamba): 87%
shoot length reduced by (rice cv. Nipponbare; 0.1 ppm dicamba): 61%
Shoot Length (rice cv. Nipponbare; 0.1 ppm dicamba, untreated 11.4): 4.5 cm
Total Root Length (rice cv. Nipponbare; 0.1 ppm dicamba, untreated 44.9): 6.0 cm
Shoot Length (rice cv. Nipponbare; 1 ppm dicamba, untreated 11.4): 3.8 cm
Total Root Length (rice cv. Nipponbare; 1 ppm dicamba, untreated 44.9): 0.0 cm

CSC(=O)c1c(C(F)F)nc(C(F)(F)F)c(C(=O)SC)c1CC(C)C [Dithiopyr, dithiopyr, reference compound]
Shoot Length (rice cv. Cheniere [1]; 1 ppm dithiopyr, 0 ppm PESA salt, untreated 4.0): 4.3 cm
Root Length (rice cv. Cheniere [1]; 1 ppm dithiopyr, 0 ppm PESA salt, untreated 9.5): 10.0 cm
root length reduced by (rice cv. Cheniere [1]; 10 ppm dithiopyr): 30%
Shoot Length (rice cv. Cheniere [1]; 10 ppm dithiopyr, 0 ppm PESA salt, untreated 4.0): 3.5 cm
Root Length (rice cv. Cheniere [1]; 10 ppm dithiopyr, 0 ppm PESA salt, untreated 9.5): 6.7 cm
Shoot Length (rice cv. Cheniere [1]; [6]): 3.0 cm
Root Length (rice cv. Cheniere [1]; [7]): 4.1 cm
Shoot Length (rice cv. Cheniere [1]; 100 ppm dithiopyr, 0 ppm PESA salt, untreated 4.0): 1.2 cm
Root Length (rice cv. Cheniere [1]; 100 ppm dithiopyr, 0 ppm PESA salt, untreated 9.5): 0.4 cm

CCc1cccc(C)c1N(C(=O)CCl)C(C)COC (stereo not drawn) [Metolachlor, metolachlor, reference compound]
Shoot Length (rice cv. Cheniere [1]; 1 ppm metolachlor, 0 ppm PESA salt, untreated 3.7): 3.6 cm
Root Length (rice cv. Cheniere [1]; 1 ppm metolachlor, 0 ppm PESA salt, untreated 9.3): 8.2 cm
decrease in root length (rice cv. Cheniere [1]; 10 ppm metolachlor): 60%
Shoot Length (rice cv. Cheniere [1]; 10 ppm metolachlor, 0 ppm PESA salt, untreated 3.7): 0.9 cm
Root Length (rice cv. Cheniere [1]; 10 ppm metolachlor, 0 ppm PESA salt, untreated 9.3): 3.7 cm
Shoot Length (rice cv. Cheniere [1]; 100 ppm metolachlor, 0 ppm PESA salt, untreated 3.7): 0.6 cm
Root Length (rice cv. Cheniere [1]; 100 ppm metolachlor, 0 ppm PESA salt, untreated 9.3): 1.6 cm

COc1nc(C)nc(NC(=O)NS(=O)(=O)c2ccccc2Cl)n1 [Chlorsulfuron, chlorsulfuron, reference compound]
Shoot Length (rice cv. Cheniere [1]; 10 ppm chlorsulfuron, 0 ppm PESA salt, untreated 4.8): 0.9 cm
Root Length (rice cv. Cheniere [1]; 10 ppm chlorsulfuron, 0 ppm PESA salt, untreated 11.6): 0.6 cm
Shoot Length (rice cv. Cheniere [1]; 100 ppm chlorsulfuron, 0 ppm PESA salt, untreated 4.8): 0.7 cm
Root Length (rice cv. Cheniere [1]; 100 ppm chlorsulfuron, 0 ppm PESA salt, untreated 11.6): 0.3 cm
Shoot Length (cotton; 1 ppm chlorsulfuron): 2.3 cm
Root Length (cotton; 1 ppm chlorsulfuron): 2.1 cm
Shoot Length (cotton; 10 ppm chlorsulfuron): 1.5 cm
Root Length (cotton; 10 ppm chlorsulfuron): 1.8 cm
Shoot Length (cotton; 100 ppm chlorsulfuron): 1.7 cm
Root Length (cotton; 100 ppm chlorsulfuron): 1.9 cm

C=C1C[C@]23C[C@@]1(O)CC[C@H]2[C@@]12C=C[C@H](O)[C@@](C)(C(=O)O1)[C@H]2[C@@H]3C(=O)O [GA3, gibberellic acid, reference compound]
Shoot Length (rice cv. Cheniere [1]; 0 ppm pendimethalin, treatment 30 ppm PESA salt, 10 ppm GA3 or both, untreated 3.9): 7.7 cm
Root Length (rice cv. Cheniere [1]; 0 ppm pendimethalin, treatment 30 ppm PESA salt, 10 ppm GA3 or both, untreated 9.7): 10.8 cm
Shoot Length (rice cv. Cheniere [1]; [6]): 5.6 cm
Root Length (rice cv. Cheniere [1]; [7]): 4.7 cm
Shoot Length (rice cv. Cheniere [1]; [3]): 1.5 cm
Root Length (rice cv. Cheniere [1]; [4]): 2.7 cm
protection of roots and shoots from pendimethalin (rice cv. Cheniere [1]; in the growth medium with pendimethalin (Table 4)): only marginally effective at protecting the roots and shoots from pendimethalin
Shoot Length (rice cv. Cheniere [1]; no dithiopyr (Control), treatment 30 ppm PESA salt, 10 ppm GA3 or both, untreated 3.9): 7.0 cm
Root Length (rice cv. Cheniere [1]; no dithiopyr (Control), treatment 30 ppm PESA salt, 10 ppm GA3 or both, untreated 9.5): 10.7 cm

C#CCN1C(=O)COc2cc(F)c(N3C(=O)C4=C(CCCC4)C3=O)cc21 [Flumioxazin, flumioxazin, reference compound]
Shoot Length (rice cv. Nipponbare; 0.1 ppm flumioxazin, untreated 10.6): 10.7 cm
Total Root Length (rice cv. Nipponbare; 0.1 ppm flumioxazin, untreated 52.1): 41.5 cm
Shoot Length (rice cv. Nipponbare; 0.3 ppm flumioxazin, untreated 10.6): 11.0 cm
Total Root Length (rice cv. Nipponbare; 0.3 ppm flumioxazin, untreated 52.1): 64.1 cm
root length reduced by (rice cv. Nipponbare; 1 ppm flumioxazin): 28%
shoot length reduced by (rice cv. Nipponbare; 1 ppm flumioxazin): 64%
Shoot Length (rice cv. Nipponbare; 1 ppm flumioxazin, untreated 10.6): 3.8 cm
Total Root Length (rice cv. Nipponbare; 1 ppm flumioxazin, untreated 52.1): 14.5 cm
Shoot Length (rice cv. Nipponbare; 3 ppm flumioxazin, untreated 10.6): 5.9 cm
Total Root Length (rice cv. Nipponbare; 3 ppm flumioxazin, untreated 52.1): 15.7 cm
